Laboratory results reported in US20240398783A1, “Compounds and Pharmaceutical Compositions Comprising Inhibitors of Amyloid Peptide Interactions with Glycosaminoglycans, Methods of Treatment and Use Thereof” (Gismo Therapeutics, Inc., priority 2021, published 2024).
Counter-ions that a name gives are not always drawn. Like-named read-outs stand apart in the source and are kept apart here.

Columns and labels:
[1] = molecular target: Tau binding to heparin (HS-GAG) (Homo sapiens, UniProt P10636); experiment: Inhibition of Tau binding to immobilized heparin-BSA (ELISA); parameters: species or system porcine; conditions: for inhibition at 30 µM: read-out: Tau/Heparin Activity (% inhibition class)
Sequence of Tau binding to heparin (HS-GAG) (P10636 with tags, fused parts or gaps): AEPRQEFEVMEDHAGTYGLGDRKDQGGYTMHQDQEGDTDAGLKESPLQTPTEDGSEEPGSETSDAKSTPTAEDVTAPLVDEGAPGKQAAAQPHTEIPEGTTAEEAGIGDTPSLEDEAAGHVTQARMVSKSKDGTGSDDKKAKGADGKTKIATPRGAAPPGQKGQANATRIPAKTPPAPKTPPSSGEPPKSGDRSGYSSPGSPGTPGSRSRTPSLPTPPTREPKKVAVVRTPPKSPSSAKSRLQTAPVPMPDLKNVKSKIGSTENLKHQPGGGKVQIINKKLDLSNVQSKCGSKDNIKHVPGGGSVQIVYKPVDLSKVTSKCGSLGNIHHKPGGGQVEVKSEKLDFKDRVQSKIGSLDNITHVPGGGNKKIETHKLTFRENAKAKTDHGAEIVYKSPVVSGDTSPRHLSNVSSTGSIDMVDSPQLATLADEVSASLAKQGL
Description: (§1) Porcine intestinal mucosa heparin conjugated to Bovine Serum Albumin (Heparin-BSA) was prepared as described (Najjam, S. et al. 1997, Cytokine 12, 1013-1022). Heparin is a sulfated HS-GAG and is commonly used as a HS-GAG in biochemical and binding assays (Lindahl, U. and Kjellen, L. (2013) ibid). Heparin-BSA at 0.01 mg/ml in Phosphate Buffered Saline (PBS; pH 7.4) was added to a 96 well polystyrene ELISA plate (NUNC Cat. No. 449824; 100 μl per well) and incubated Over Night (ON) at 4 degrees Celsius. For negative controls, ELISA plates were coated with BSA instead of Heparin-BSA, using the same procedure. Following the incubation, the plate was washed consecutively, by immersion, with de-ionized water and PBS (pH 7.4). The ELISA plate was then blocked with nonfat milk (2%, 200 μl per well) for 2 hours at Room Temperature (RT) with gentle shaking. Following blocking, the plate was washed with de-ionized water then PBS (pH 7.4). GBAPs were dissolved and diluted in PBS (pH 6.5, supplemented with 0.1% BSA) at desired concentrations, added to the ELISA plates containing immobilized Heparin-BSA (100 μl per well) and incubated for 2 hours at RT with gentle shaking. Following incubation, the plate was washed with de-ionized water and three times with PBS (pH 6.5) plus Tween. Bound GBAP was detected by a monoclonal antibody specific for that GBAP, followed by incubation with secondary antibody conjugated to horseradish peroxidase (HRP). Antibody was diluted in PBS (pH 6.5 supplemented with 1% BSA). Following each incubation with antibody, the plate was washed with de-ionized water and three times with PBS (pH 6.5) wash buffer containing 0.1% Tween. The peroxidase substrate chromogen, TMB (Dako Cat. No. S1599) was added (100 μl per well) to the ELISA plate and incubated at room temperature. After 5 minutes ELISA Stop Solution (hydrochloric acid 1N, sulfuric acid 3N) was added (100 μl per well) to stop the peroxidase catalyzed colorimetric reaction. The Optical Density of the samples was measured at 450 nm using an ELISA plate reader (BioTek Synergy H1). Following color development, the % inhibition compared to control (BSA-coated plates) was determined. IC-50s were calculated using GraphPad Prism software.
The assay was performed as described in Example 43, with the following modifications. Following to coating the plates with Heparin-BSA, plates were washed as described. The compounds were dissolved in DMSO at 10 mM final concentration and further diluted prior to assay. DMSO concentration in the screening well was up to 2%. Individual compounds were co-incubated with Tau on plates containing immobilized heparin. Tau purchased from rPeptide (Cat. No. T1001) was dissolved in DMSO (Sigma Cat. No. D2650), quickly frozen and kept in aliquots at −80 degrees Celsius. Tau dissolved in PBS (pH 6.5, supplemented with BSA, 0.1%) was added to the ELISA plate (100 μl per well) and incubated for 2 hours at RT with gentle shaking. Following the incubation, the plate was washed with de-ionized water and three times with PBS (pH 6.5) plus Tween. Bound Tau was detected by anti-Tau Monoclonal Antibody D-8 (Santa Cruz Cat. No. sc-166060), followed by secondary anti-IgG antibody conjugated to HRP (R&D System, Cat. No. HAF007). Following to color development with TMB, as described in Example 43, the Optical Density of the samples was measured at 450 nm using an ELISA plate reader. Following color development, the % inhibition compared to control (no compound, DMSO control) for every compound was determined.
An example of inhibition curve is shown in FIG. 3 for Inhibitor Compounds 3 and 6. As described in Example 43, Heparin in the form of Heparin-BSA conjugate is used as a source of HS-GAG. For each compound IC-50 value in Tau—heparin-BSA binding assay is shown in […]. In some cases IC-50 was not measured and […] at 30 μM compound concentration is shown instead. […]

[2] = molecular target: T1, SAA binding to heparin (HS-GAG) (Homo sapiens, UniProt P0DJI8); experiment: Inhibition of SAA binding to immobilized heparin-BSA (ELISA); parameters: species or system porcine
T1 sequence (P0DJI8 19-122): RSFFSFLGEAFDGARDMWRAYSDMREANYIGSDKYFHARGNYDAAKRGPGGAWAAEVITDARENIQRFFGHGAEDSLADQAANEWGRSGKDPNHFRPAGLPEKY
Description: as §1
The assay was performed as described in Example 43, with the following modifications. Following to coating the plates with Heparin-BSA, plates were washed as described. The compounds were dissolved in DMSO at 10 mM final concentration and further diluted prior to assay. DMSO concentration in the screening well was up to 2%. Individual compounds were co-incubated with SAA on plates containing immobilized heparin. Serum amyloid A (SAA) from PeProtech (NJ, USA, Cat. No. 300-53) was dissolved in DMSO, quickly frozen and kept in aliquots at −80 degrees Celsius. SAA dissolved in Tris buffer (pH 6.5, supplemented with BSA, 0.1%) was added to the ELISA plate (100 μl per well) and incubated for 2 hours at RT with gentle shaking. Following the incubation, the plate was washed with de-ionized water and three times with Tris Buffered Saline (TBS, pH 6.5) plus Tween. Bound SAA was detected by Anti-SAA Monoclonal Antibody (R&D System Cat. No. MAB30192), followed by secondary anti-IgG antibody conjugated to HRP (R&D System, Cat. No. HAF007). Antibody was diluted in TBS antibody buffer (pH6.5 supplemented with 1% BSA). Following each incubation with antibody, the plate was washed with de-ionized water and three times with TBS (pH6.5) wash buffer containing 0.1% Tween. Following to color development with TMB, as described in Example 43, the Optical Density of the samples was measured at 450 nm using an ELISA plate reader. Following color development, the % inhibition compared to control (no compound, DMSO control) for every compound was determined.
As described in Example 43, Heparin in the form of Heparin-BSA conjugate is used as a source of HS-GAG. For each compound IC-50 value in SAA—heparin-BSA binding assay is shown in μM (micromolar). […]

[3] = Tau/Heparin Activity (IC-50), Tau, heparin-BSA
[4] = read-out: Serum Amyloid A/Heparin Activity (IC-50); SAA, heparin-BSA
[5] = read-out: Serum Amyloid A/Heparin Activity (% inhibition class)
[6] = 30 μM compound; SAA, heparin-BSA; read-out: Serum Amyloid A/Heparin Activity (% inhibition class)
[7] = 30 μM compound, Tau, heparin-BSA

Structure (SMILES)	IC50 [1, 3]	inhibition at 30 µM [2, 6]	further results
Cc1cc(-n2ccnc2)ccc1/C=N/Nc1ccnc2cc(Cl)ccc12 [Compound 1, (E)-4-((E)-(4-(1H-imidazol-1-yl)-2-methylbenzylidene)hydrazono)-7-chloro-1,4-dihydroquinoline]	–	–	IC50 ([1]; Tau, heparin-BSA, read-out: Tau/Heparin Activity (IC-50)): 1.38 µM; IC50 ([2]; SAA, heparin-BSA; read-out: Serum Amyloid A/Heparin Activity (IC-50)): 8.16 µM
Cc1ncn(-c2ccc(/C=N/Nc3ccnc4cc(Cl)ccc34)cc2)c1C [Compound 2, (E)-7-chloro-4-((E)-(4-(4,5-dimethyl-1H-imidazol-1-yl)benzylidene)hydrazono)-1,4-dihydroquinoline]	4.42 µM	–	IC50 [2, 4]: 16 µM
Clc1ccc2c(N/N=C/c3ccc(-n4cccn4)cc3)ccnc2c1 [Compound 3, (E)-4-((E)-(4-(1H-pyrazol-1-yl)benzylidene)hydrazono)-7-chloro-1,4-dihydroquinoline]	1.56 µM	–	inhibition at 30 µM [2, 5]: > 30%
C[N+](C)(C)Cc1ccc(/C=N\Nc2ccnc3ccc(Cl)cc23)cc1 [Compound 4, (Z)-1-(4-((2-(6-chloroquinolin-4-yl)hydrazineylidene)methyl)phenyl)—N,N,N-trimethylmethanaminium iodide]	29.2 µM	< 30%	–
Fc1ccc2c(N/N=C/c3ccc(-n4ccnc4)cc3)ccnc2c1 [Compound 5, (E)-4-(2-(4-(1H-imidazol-1-yl)benzylidene)hydrazinyl)-7-fluoroquinoline]	31.4 µM	–	IC50 [2, 4]: 24 µM
Fc1ccc2c(N/N=C/c3ccc(CN4CCOCC4)cc3)ccnc2c1 [Compound 6, (E)-4-(4-((2-(7-fluoroquinolin-4-yl)hydrazono)methyl)benzyl)morpholine]	2.27 µM	> 30%	–
CN1CCN(Cc2ccc(/C=N/Nc3ccnc4cc(Cl)ccc34)cc2)CC1 [Compound 7, (E)-7-chloro-4-(2-(4-((4-methylpiperazin-1-yl)methyl)benzylidene)hydrazinyl)quinolone]	15.5 µM	> 30%	–
C(=N\Nc1ccc2c3c(cccc13)CC2)/c1ccc(-n2ccnc2)cc1 [Compound 8, (E)-1-(4-((2-(1,2-dihydroacenaphthylen-5-yl)hydrazineylidene)methyl)phenyl)-1H-imidazole]	–	–	inhibition at 30 µM [1]: < 30%; inhibition at 30 µM [2, 5]: < 30%
C[n+]1ccc(/C=N\Nc2ccnc3ccccc23)cc1 [Compound 9, (Z)-1-methyl-4-((2-(quinolin-4-yl)hydrazono)methyl)pyridin-1-ium iodide]	–	< 30%	inhibition at 30 µM [1, 7]: < 30%
O=S1(=O)CCN(Cc2ccc(/C=N/Nc3ccnc4cc(F)ccc34)cc2)CC1 [Compound 10, (E)-4-(4-((2-(7-fluoroquinolin-4-yl)hydrazono)methyl)benzyl)thiomorpholine 1,1-dioxide]	–	< 30%	inhibition at 30 µM [1, 7]: < 30%
COc1cc2nccc(NN=Cc3ccc(-n4ccnc4)c(C)c3)c2cc1OC [Compound 11, 4-(2-(4-(1H-imidazol-1-yl)-3-methylbenzylidene)hydrazineyl)-6,7-dimethoxyquinoline hydrochloride]	3.3 µM	–	inhibition at 30 µM [2, 5]: < 30%
COc1ccc2c(NN=Cc3ccc(-n4ccnc4)c(C)c3)ccnc2c1 [Compound 12, 4-(2-(4-(1H-imidazol-1-yl)-3-methylbenzylidene)hydrazineyl)-7-methoxyquinoline]	13.1 µM	–	IC50 [2, 4]: 31.7 µM
COc1cc2nccc(N/N=C/c3ccc(-n4ccnc4)c(OC)c3)c2cc1OC [Compound 13, (E)-4-(2-(4-(1H-imidazol-1-yl)-3-methoxybenzylidene)hydrazineyl)-6,7-dimethoxyquinoline phosphate]	–	–	inhibition at 30 µM [1]: < 30%; inhibition at 30 µM [2, 5]: < 30%
Clc1ccc2c(N/N=C/c3ccc(-n4ccnc4)nc3)ccnc2c1 [Compound 14, (E)-4-(2-((6-(1H-imidazol-1-yl)pyridin-3-yl)methylene)hydrazineyl)-7-chloroquinoline hydrochloride]	20.3 µM	–	IC50 [2, 4]: 7.67 µM
